The values below come from patent publication US8008260B2, “Methods of protecting against apoptosis using lipopeptides” (Cleveland Clinic Foundation, priority 2005, dated 2011).

Peptide text beside a SMILES is read from it. * marks the point of attachment. Propyl(2R-PamO,3-PamO) = CCCCCCCCCCCCCCCC(=O)OC[C@H](C*)OC(=O)CCCCCCCCCCCCCCC; X1 = CCCCCCCCCCCCCCCC(=O)OCC(C*)OC(=O)CCCCCCCCCCCCCCC

The nature of data set [1]: Solubility of the lipopeptides.
The next data set has as its target T1, TLR2/TLR6 heterodimer (Homo sapiens, UniProt O60603+Q9Y2C9).
T1 construct: expressed in transfected cells; host or cells: 293 cells
In words: NF-κB-dependent reporter activity in 293 cells expressing the TLR2/TLR6 heterodimer. More on the design: NF-κB activation: scale not given here. Type of data set: cell-based. The note with it: for NF-κB activation: in vitro activity, 293 cells expressing TLR2/TLR6; for activation of the NF-κB reporter (in words, compared with CBLB601): 293 cells expressing TLR2/TLR6, various doses. The protocol:
NF-κB-dependent reporter activity was measured in 293 cells that expressed the TLR2/YLR6 heterodimer. […] None of the non-palmitoylated corresponding peptides activated the NF-κB reporter (FIG. 18B). The peptide component of CBLB617 has a (−4) charge, which should prevent it from interacting with negatively charged cell surface markers. […] Table 5 summarizes the in vitro activity and solubility of all the compounds.

Another data set concerns ICR mice. Nature of the data set: Radioprotection against total body gamma irradiation (TBI), 30-day survival. Type of data set: in vivo. As to conditions: for toxicity in combination with radiation: i.m. 24 hours before 10 Gy TBI; for rank of radioprotective potency: i.m. 24 hrs before 10 Gy TBI. The source says:
CBLB601, a R-Pam2-lipopeptide with the peptide moiety consisting of C-SKKKK (SEQ ID NO: 8), was selected for more detailed characterization as a radioprotector based upon its ability to activate NF-κB and preliminary in vivo data on radioprotection in NIH-SWISS mice (see Example 2). The objectives of this study were to determine the optimal dose, route of administration, and time of administration of CBLB601 to serve as a protector. ICR female mice of 10-15 weeks of age were used, with 10-15 animals per group or condition.
The optimal intraperitoneal administration schedule of CBLB601 was determined by injecting the compound at different times prior to irradiation. […] Therefore, all of the optimization experiments were performed with 10 Gy of total body irradiation (TBI). A dose of 3 μg of BCLB601/mouse (1/10 NOAEL) was chosen as the starting dose. Thus, 3 μg of CBLB601 was injected i.p. into ICR mice at 0.5 h, 1 h, 6 h, and 24 h or 1 h, 24 h, 48 h, 72 h, 96 h prior to 10 Gy of TBI (as described in Example 1). […] Injection of CBLB601 24 hrs before irradiation clearly yielded the best radioprotection (90-100% 30-day survival). When the compound was administered 48 hrs before irradiation, the radioprotection was ˜30%. Administration of CBLB601 at 1 hr prior to irradiation produced inconsistent results ranging from 80% protection in one experiment (FIG. 5B) to almost no protection (20%) in another experiment (FIG. 5A).
To determine the optimal radioprotective dose of CBLB601, the timing of injection and level of irradiation were kept constant, while the dose of CBLB601 was varied. ICR mice were injected i.p. with 1, 3, 10, 20, or 30 μg of CBLB601/mouse or 0.1, 0.3, 1, 3, 10, or […] 24 hrs prior to irradiation (10 Gy of TBI), and their survival was monitored for 30 days. The best protective dose was 3 μg/mouse, which supported a survival of 100% (FIGS. 6 A and B). […] Thus, the optimal protective dose of CBLB601 was determined to be 3 μg/mouse.
To determine the level of radiation that was protected by CBLB601, radioprotectant-treated and control mice were exposed to increasing levels of TBI. Groups of ICR mice were injected i.p. with either 3 μg CBLB601/mouse or PBS, and then 24 h later they received 10, 11, 12, 13, 14, and 15 Gy doses of TBI. Survival was recorded over 30 days. […] All of the mice irradiated with 10-11 Gy of TBI died between days 12-14 post irradiation, which was typical for death due to hematopoietic failure. All of the mice that received 14-15 Gy of TBI died between days 7-9 post irradiation, which was typical for mortality due to radiation-induced intestinal damage. Mice that were irradiated with 12-13 Gy of TBI died at intermediate times, which was typical for a mixed etiology of radiation-induced mortality. […] To reach a statistically significant 10% difference between control and CBLB601-treated mice, experimental groups of at least 50 mice must be used. Although CBLB601 rescued 100% of mice from 10 Gy of TBI, its protection at 11 Gy of TBI was only 20%. […] This may be indicative of a combined toxicity of the drug and the irradiation.
CBLB601 was administered intramuscularly to determine the optimal route of administration of this compound (especially since this would be the preferred route of administration for humans). […] In another experiment, increasing doses of CBLB601 administered i.m. were tested against 10, 11, and 12 Gy doses of […] (FIG. 9). […] A summary of the dose-dependency of the radioprotection of […] administered i.p. or i.m. 24 h prior to 10 Gy of TBI is shown in FIG. 10.
The optimal schedule of intramuscular administration of CBLB601 was determined by varying the time between drug delivery and irradiation. ICR mice were injected i.m. with 3 μg of CBLB601/mouse 24 h, 6 h, 3 h, and 1 h prior to TBI and +1 h, +3 h after TBI (FIG. 12A), as well as 48 h, 36 h, 24 h, 12 h, and 6 h prior to TBI (FIG. 12B). […]

T1 sequence (O60603 21-784): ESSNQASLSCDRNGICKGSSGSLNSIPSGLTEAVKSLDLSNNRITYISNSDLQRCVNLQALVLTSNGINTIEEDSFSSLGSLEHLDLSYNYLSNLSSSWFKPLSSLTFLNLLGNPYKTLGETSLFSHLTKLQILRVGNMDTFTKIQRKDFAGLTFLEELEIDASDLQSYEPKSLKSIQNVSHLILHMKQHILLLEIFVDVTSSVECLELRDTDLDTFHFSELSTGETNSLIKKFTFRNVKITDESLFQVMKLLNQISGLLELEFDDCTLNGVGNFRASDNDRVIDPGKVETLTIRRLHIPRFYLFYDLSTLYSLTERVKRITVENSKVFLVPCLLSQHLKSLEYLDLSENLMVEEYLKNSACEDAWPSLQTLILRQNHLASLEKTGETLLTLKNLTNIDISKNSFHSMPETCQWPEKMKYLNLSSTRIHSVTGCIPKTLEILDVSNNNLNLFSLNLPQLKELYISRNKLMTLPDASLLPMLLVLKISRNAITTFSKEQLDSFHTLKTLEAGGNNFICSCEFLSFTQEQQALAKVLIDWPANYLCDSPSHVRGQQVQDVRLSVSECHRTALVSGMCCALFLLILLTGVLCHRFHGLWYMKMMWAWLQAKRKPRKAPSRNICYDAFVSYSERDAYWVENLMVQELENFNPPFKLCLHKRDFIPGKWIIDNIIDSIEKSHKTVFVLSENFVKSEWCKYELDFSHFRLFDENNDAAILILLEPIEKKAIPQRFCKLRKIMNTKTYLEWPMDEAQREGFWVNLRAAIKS
T1 sequence (Q9Y2C9 32-796): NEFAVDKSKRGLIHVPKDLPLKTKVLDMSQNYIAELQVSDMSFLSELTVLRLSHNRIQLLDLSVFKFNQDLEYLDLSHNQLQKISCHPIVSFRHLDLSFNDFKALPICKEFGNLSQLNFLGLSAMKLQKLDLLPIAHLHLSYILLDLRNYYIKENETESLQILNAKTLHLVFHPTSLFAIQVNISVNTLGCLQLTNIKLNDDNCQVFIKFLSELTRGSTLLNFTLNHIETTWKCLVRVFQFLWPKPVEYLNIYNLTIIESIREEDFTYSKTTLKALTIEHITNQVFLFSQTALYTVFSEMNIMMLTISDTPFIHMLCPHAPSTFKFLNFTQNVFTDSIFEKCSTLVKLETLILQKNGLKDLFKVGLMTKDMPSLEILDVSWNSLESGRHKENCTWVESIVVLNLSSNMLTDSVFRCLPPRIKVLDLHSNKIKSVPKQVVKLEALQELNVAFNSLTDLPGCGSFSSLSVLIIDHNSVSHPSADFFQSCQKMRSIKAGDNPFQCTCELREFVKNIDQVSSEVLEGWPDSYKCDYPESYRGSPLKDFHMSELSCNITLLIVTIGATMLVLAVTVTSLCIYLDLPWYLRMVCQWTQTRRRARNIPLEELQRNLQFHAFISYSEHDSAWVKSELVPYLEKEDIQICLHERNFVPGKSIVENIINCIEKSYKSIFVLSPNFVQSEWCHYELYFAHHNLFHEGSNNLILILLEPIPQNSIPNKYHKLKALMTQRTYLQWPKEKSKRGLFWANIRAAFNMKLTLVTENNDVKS

Consider `CCCCCCCCCCCCCCCC(=O)OCC(CSC[C@H](N)C(=O)NCC(=O)N[C@@H](CCC(N)=O)C(=O)N[C@@H](Cc1c[nH]cn1)C(=O)N[C@@H](Cc1c[nH]cn1)C(=O)N[C@@H](Cc1c[nH]cn1)C(=O)O)OC(=O)CCCCCCCCCCCCCCC` (some centres unmarked) [CBLB602] (H-C(X1)GQHHH-OH), for which, in data set [1], the Solubility entry was “Poor”. The compound also registered an NF-κB activation on TLR2/TLR6 heterodimer of 0.
Taken in the same sequence, the figures for `CCCCCCCCCCCCCCCC(=O)OCC(CSC[C@H](N)C(=O)NCC(=O)N[C@@H](CCC(N)=O)C(=O)N[C@@H](Cc1c[nH]cn1)C(=O)N[C@@H](Cc1c[nH]cn1)C(=O)N[C@@H](CCSC)C(=O)O)OC(=O)CCCCCCCCCCCCCCC` (some centres unmarked) [CBLB603] (H-C(X1)GQHHM-OH) were “Poor” and 0.
`CCCCCCCCCCCCCCCC(=O)OCC(CSC[C@H](N)C(=O)NCC(=O)N[C@@H](CO)C(=O)N[C@@H](Cc1c[nH]cn1)C(=O)N[C@@H](Cc1c[nH]cn1)C(=O)N[C@@H](CCSC)C(=O)O)OC(=O)CCCCCCCCCCCCCCC` (some centres unmarked) [CBLB604] (H-C(X1)GSHHM-OH): the Solubility result in data set [1] is recorded as “Poor”. In addition, the NF-κB activation on TLR2/TLR6 heterodimer stood at 0.
As for `CCCCCCCCCCCCCCCC(=O)OCC(CSC[C@H](N)C(=O)N[C@@H](CO)C(=O)N[C@@H](CCC(N)=O)C(=O)N[C@@H](CCSC)C(=O)N[C@@H](Cc1c[nH]cn1)C(=O)N[C@@H](Cc1c[nH]cn1)C(=O)O)OC(=O)CCCCCCCCCCCCCCC` (some centres unmarked) [CBLB605] (H-C(X1)SQMHH-OH), in data set [1], the Solubility entry is given as “Poor”. The same compound had an NF-κB activation at TLR2/TLR6 heterodimer of 2.
In the case of `CCCCCCCCCCCCCCCC(=O)OC[C@H](CSC[C@H](N)C(=O)NCC(=O)N[C@@H](CC(=O)O)C(=O)N1CCC[C@H]1C(=O)N[C@@H](CCCCN)C(=O)N[C@@H](Cc1c[nH]cn1)C(=O)N1CCC[C@H]1C(=O)N[C@@H](CCCCN)C(=O)N[C@@H](CO)C(=O)N[C@@H](Cc1ccccc1)C(=O)O)OC(=O)CCCCCCCCCCCCCCC` [CBLB606] (H-C(Propyl(2R-PamO,3-PamO))GDPKHPKSF-OH; C-terminus assumed), the Solubility entry in data set [1] was “Poor”. This compound also came in with an NF-κB activation on TLR2/TLR6 heterodimer of 100.
Consider `CCCCCCCCCCCCCCCC(=O)OCC(CSC[C@H](N)C(=O)NCC(=O)N[C@@H](CC(=O)O)C(=O)N1CCC[C@H]1C(=O)N[C@@H](CCCCN)C(=O)N[C@@H](Cc1c[nH]cn1)C(=O)N1CCC[C@H]1C(=O)N[C@@H](CCCCN)C(=O)N[C@@H](CO)C(=O)N[C@@H](Cc1ccccc1)C(=O)N[C@H](C(=O)NCC(=O)N[C@@H](Cc1c[nH]c2ccccc12)C(=O)N[C@H](C(=O)N[C@@H](C)C(=O)O)C(C)C)[C@@H](C)O)OC(=O)CCCCCCCCCCCCCCC` (some centres unmarked) [CBLB607] (H-C(X1)GDPKHPKSFTGWVA-OH), for which the Solubility result in data set [1] is “Poor”. In addition, on TLR2/TLR6 heterodimer, the NF-κB activation is reported as 2.
Consider `CCCCCCCCCCCCCCCC(=O)OCC(CSC[C@H](N)C(=O)N[C@@H](Cc1ccccc1)C(=O)N[C@@H](CCC(=O)O)C(=O)N1CCC[C@H]1C(=O)N1CCC[C@H]1C(=O)N1CCC[C@H]1C(=O)N[C@@H](C)C(=O)N[C@H](C(=O)N[C@H](C(=O)N[C@H](C(=O)N[C@@H](CCCCN)C(=O)N[C@@H](CO)C(=O)N[C@@H](CCCCN)C(=O)O)[C@@H](C)O)[C@@H](C)O)[C@@H](C)O)OC(=O)CCCCCCCCCCCCCCC` (some centres unmarked) [CBLB608] (H-C(X1)FEPPPATTTKSK-OH), for which the Solubility entry in data set [1] was “Excellent”. At TLR2/TLR6 heterodimer, the NF-κB activation was 2.
For the compound `CCCCCCCCCCCCCCCC(=O)OCC(CSC[C@H](N)C(=O)NCC(=O)N[C@@H](CCC(=O)O)C(=O)N[C@H](C(=O)N[C@@H](CC(=O)O)C(=O)N[C@@H](CCCCN)C(=O)N[C@@H](CCC(=O)O)C(=O)NCC(=O)N[C@@H](CCCCN)C(=O)N[C@H](C(=O)N[C@H](C(=O)N[C@@H](CCCNC(=N)N)C(=O)N[C@H](C(=O)N[C@@H](Cc1ccccc1)C(=O)N[C@@H](CC(=O)O)C(=O)N[C@@H](CC(N)=O)C(=O)N[C@@H](CO)C(=O)N[C@@H](Cc1ccccc1)C(=O)O)[C@@H](C)CC)[C@@H](C)CC)[C@@H](C)CC)[C@@H](C)O)OC(=O)CCCCCCCCCCCCCCC` (some centres unmarked) [CBLB611] (H-C(X1)GETDKEGKIIRIFDNSF-OH), on TLR2/TLR6 heterodimer, the NF-κB activation is recorded as 0.
As to `CCCCCCCCCCCCCCCC(=O)OC[C@H](CSC[C@H](N)C(=O)NCC(=O)N[C@@H](CCC(=O)O)C(=O)N[C@H](C(=O)N[C@@H](CC(=O)O)C(=O)N[C@@H](CCCCN)C(=O)O)[C@@H](C)O)OC(=O)CCCCCCCCCCCCCCC` [CBLB613] (H-C(Propyl(2R-PamO,3-PamO))GETDK-OH), the Solubility entry in data set [1] is given as “Soluble”. Besides, the “protection (30-day survival)” value with ICR mice (doses of 10, 30 and 82.5 μg/mouse i.m. 24 hours before 10 Gy TBI) came out at 100%. Also, in the data set with ICR mice, the “toxicity in combination with radiation” value is “non-toxic in combination with the radiation”. The “radioprotector quality compared with CBLB601” value in the data set on ICR mice (mouse, in vivo) was “significantly better radioprotectors than CBLB601”. Moreover, the therapeutic index with ICR mice (summary of Example 5) is roughly 20. In addition, on TLR2/TLR6 heterodimer, the “activation of the NF-κB reporter (in words, compared with CBLB601)” value (from here on “activation … (in words, compared with CBLB601)”) is given as “comparable to that of CBLN601” and the NF-κB activation turned out to be 200.
As to `CCCCCCCCCCCCCCCC(=O)OC[C@H](CSC[C@H](N)C(=O)N[C@@H](CCC(N)=O)C(=O)NCC(=O)N[C@@H](CCC(=O)O)C(=O)N[C@@H](CCC(=O)O)C(=O)N[C@@H](CO)C(=O)N[C@@H](CC(N)=O)C(=O)N[C@@H](CC(=O)O)C(=O)N[C@@H](CCCCN)C(=O)O)OC(=O)CCCCCCCCCCCCCCC` [CBLB614] (H-C(Propyl(2R-PamO,3-PamO))QGEESNDK-OH), the Solubility entry in data set [1] is given as “Soluble”. Moreover, in the data set with ICR mice, the “toxicity in combination with radiation” value was “no toxicity in combination with radiation” and the “rank of radioprotective potency” value is “CBLB612>CBLB614>CBLB615”. In addition, on TLR2/TLR6 heterodimer, the “activation … (in words, compared with CBLB601)” value is “better activators than CBLB601” and the NF-κB activation stood at 200.
Turning to `CCCCCCCCCCCCCCCC(=O)OC[C@H](CSC[C@H](N)C(=O)NCC(=O)N[C@@H](CCC(=O)O)C(=O)N[C@@H](CCC(=O)O)C(=O)N[C@@H](CO)C(=O)N[C@@H](CC(N)=O)C(=O)O)OC(=O)CCCCCCCCCCCCCCC` [CBLB615] (H-C(Propyl(2R-PamO,3-PamO))GEESN-OH), the Solubility entry in data set [1] is given as “Soluble”. Moreover, in the data set with ICR mice, the “toxicity in combination with radiation” value is reported as “no toxicity in combination with radiation” and the “rank of radioprotective potency” value is “CBLB612>CBLB614>CBLB615”. Besides, at TLR2/TLR6 heterodimer, the “activation … (in words, compared with CBLB601)” value is “better activators than CBLB601” and the NF-κB activation stood at 200.
